The values that follow come from PMC7401255, “Osirisynes G-I, New Long-Chain Highly Oxygenated Polyacetylenes from the Mayotte Marine Sponge Haliclona sp” (Marine Drugs, 2020).

Where two headings read alike, the source gives them in different places.

Assay [1] deals with T1, FynB wt (Homo sapiens, UniProt P06241).
T1 construct: Crelux construct CTX4, PC09815-1
Briefly: FynB kinase inhibition assay (ADP-Glo Kinase Assay). In kind it is biochemical. As for the experimental part: The assay buffer contained 20 mM Tris pH 8.0, 170 mM NaCl, and 10 mM MgCl2.
For the selected hits, 9.5 µL protein dilution (final concentration 200 nM) were mixed with 0.5 µL of compound dilution ranging from 1–0.0005 mg/mL (assay end conc. 33–0.016 μg/mL) and preincubated for 90 min.
Then, 5 µL substrate/ATP mix was added (final concentration substrate 10 µM and ATP 100 µM) and the assay was incubated for another 2 h. Afterwards, 5 µL of the 15 µL assay reaction were transferred to new wells and 5 µL ADP Glo Reagent was added to terminate the kinase reaction and deplete the remaining ATP. After 40 min, 10 µL of Kinase Detection Reagent was added to convert ADP to ATP and allow the newly synthesized ATP to be measured using a luciferase/luciferin reaction. After another 40 min, the assay plates were measured in Luminescence mode on a Tecan M1000 plate reader. The light generated, i.e., luminescent signal, is proportional to the ADP concentration produced and is correlated with kinase activity. The IC50 was calculated using XLfit.

Assay [2] concerns the target T2, Yeast proteasome (Saccharomyces cerevisiae, UniProt P30656).
T2 construct: TUM Groll group (academic supplier)
Briefly: Proteasome inhibition assay (fluorescence intensity, Suc-Leu-Leu-Val-Tyr-AMC). Format: biochemical. The conditions noted are these: 9 nM yeast proteasome, 5 µM substrate, preincubated 90 min, 22 °C. As for the experimental part: The assay was carried out at room temperature (22 °C) using Corning 4514 black low volume 384-well plates. All measurements were performed in duplicate and the final DMSO concentration was 3.3%. The assay buffer contained 100 mM Tris pH 7.5 and 1 mM MgCl2. (Table 5).
For the positive control, 9.5 µL protein dilution (final concentration 9 nM) were mixed with 0.5 µL of compound dilution ranging from 30–0.015 μM (assay end conc. 1000–0.5 nM). For the selected hits, 9.5 µL protein dilution (final concentration 9 nM) were mixed with 0.5 µL of compound dilution ranging from 1–0.0005 mg/mL (assay end conc. 33–0.016 μg/mL) and preincubated for 90 min. Then, 5 µL substrate mix was added (final concentration 5 µM) and incubated for 60 min. The assay plates were measured in Fluorescence mode on a Tecan M1000 plate reader (ex 380 nm, em 460 nm). The IC50 was calculated using XLfit.
For assay set-up and validation, the tool compound ONX-0914 was utilized. For this tool compound, a dose-dependent decrease in the Fluorescence signal was observed similar to previous results.

Assay [3] has as its target T3, CDK7 (Homo sapiens, UniProt P50613).
T3 construct: Crelux construct CZY-3, PC09891
Briefly: CDK7 inhibition assay (ADP-Glo Kinase Assay). Format: biochemical. To be noted: for IC50: 300 nM CDK7, 30 µM CDKtide, 125 µM ATP, preincubated 120 min, 22 °C. As for the experimental part: The assay was carried out at room temperature (22 °C) using Corning white low volume 384-well plates. […]. The assay buffer contained 20 mM Hepes pH 7.0, 150 mM NaCl, and 10 mM MgCl2. (Table 4).
For the positive control, 9.5 µL protein dilution (final concentration 300 nM) were mixed with 0.5 µL of compound dilution ranging from 990–0.006 μM (assay end conc. 33–0.0002 μM). For the selected hits, 9.5 µL protein dilution (final concentration 300 nM) were mixed with 0.5 µL of compound dilution ranging from 1–0.0005 mg/mL (assay end conc. 33–0.016 μg/mL) and preincubated for 120 min.
Then, 5 µL substrate/ATP mix was added (final concentration substrate 30 µM and ATP 125 µM) and the assay was incubated for another 2 h. Afterwards, 5 µL of the 15 µL assay reaction were transferred to new wells and 5 μL ADP Glo Reagent was added to terminate the kinase reaction and deplete the remaining ATP. After 40 min, 10 µL of Kinase Detection Reagent was added to convert ADP to ATP and allow the newly synthesized ATP to be measured using a luciferase/luciferin reaction. After another 40 min, the assay plates were measured in Luminescence mode on a Tecan M1000 plate reader.
The light generated, i.e., luminescent signal, is proportional to the ADP concentration produced and is correlated with kinase activity. The IC50 was calculated using XLfit.
Background: ADP-Glo turns the ADP formed in a reaction into a luminescent signal.

For assay [4], the system named is reverse transcriptase (RT). Details: method as in doi:10.1016/S0040-4039(00)96493-1. The conditions noted are these: cited from earlier work.
Assay [5] concerns Na+/K+ ATPase. More on the design: method as in doi:10.1016/S0040-4039(00)96493-1. To be noted: cited from earlier work.
Where [6] appears, read: 200 nM FynB wt, 10 µM Fyn substrate, 100 µM ATP, preincubated 90 min, 22 °C, read-out: IC50 FynB Kinase Inhibition.

T1 sequence (P06241 whole entry): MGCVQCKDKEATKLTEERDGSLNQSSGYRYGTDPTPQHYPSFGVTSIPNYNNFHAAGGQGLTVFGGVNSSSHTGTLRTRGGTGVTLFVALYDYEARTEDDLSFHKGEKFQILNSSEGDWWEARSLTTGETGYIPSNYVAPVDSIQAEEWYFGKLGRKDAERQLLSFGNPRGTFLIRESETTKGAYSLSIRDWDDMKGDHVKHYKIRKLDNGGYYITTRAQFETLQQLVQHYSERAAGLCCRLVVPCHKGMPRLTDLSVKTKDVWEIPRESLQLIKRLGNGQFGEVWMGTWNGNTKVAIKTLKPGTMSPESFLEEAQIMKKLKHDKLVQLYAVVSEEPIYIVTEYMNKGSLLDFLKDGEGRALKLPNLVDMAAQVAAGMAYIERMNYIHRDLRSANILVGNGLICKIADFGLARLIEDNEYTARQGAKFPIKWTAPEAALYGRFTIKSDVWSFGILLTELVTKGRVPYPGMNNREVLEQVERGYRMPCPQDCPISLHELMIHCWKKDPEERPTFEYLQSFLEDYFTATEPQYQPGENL
T3 sequence (P50613 whole entry, species assumed): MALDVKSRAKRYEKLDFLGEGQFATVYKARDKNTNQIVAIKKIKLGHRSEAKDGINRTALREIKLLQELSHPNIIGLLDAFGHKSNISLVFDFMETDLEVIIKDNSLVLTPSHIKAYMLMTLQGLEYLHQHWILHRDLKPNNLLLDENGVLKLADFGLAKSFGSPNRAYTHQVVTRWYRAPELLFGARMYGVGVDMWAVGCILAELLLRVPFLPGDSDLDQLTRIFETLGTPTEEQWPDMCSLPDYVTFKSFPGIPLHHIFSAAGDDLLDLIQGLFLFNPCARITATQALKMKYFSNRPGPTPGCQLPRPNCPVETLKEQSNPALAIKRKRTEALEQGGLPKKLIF

For the compound `C#CC(O)/C=C/C(O)CCCC(O)CC#CC(O)C#CC(O)CCCC(O)/C=C/CCCCCC(=O)CCCCCCCCCCCCCC(O)C(O)C#CC(=O)O` (stereo not shown) [Osirisyne A (4), osirisyne A], the IC50 in assay [1] (setting [6]) and in assay [2] was above 41 µM in each case.
Turning to `C#CC(O)/C=C/C(O)CCCC(O)CC#CC(O)C#CCCCCC(O)/C=C/CCCCCC(=O)CCCCCCCCCCCCCC(O)C(O)C#CC(=O)O` (stereo not shown) [Osirisyne B (5), osirisyne B], the “CDK7 inhibition (in words)” value in assay [3] is “inhibited”. For the same compound, the IC50 (usually the concentration that inhibits the measured activity by half) in assay [3] was determined as 9.13 µM; in assay [1] (setting [6]), 18.4 µM; in assay [2] it was 0.26 µM. Further, the “Fyn kinase inhibition (in words)” value in assay [1] was “inhibited”.
For the compound `C#CC(O)/C=C/C(O)CCCC(O)CC#CC(O)C#CCCCCC(O)/C=C/CCCC(O)/C=C/CCCCCCCCCCCCCC(O)C(O)C#CC(=O)O` (stereo not shown) [Osirisyne E (6), osirisyne E], the “CDK7 inhibition (in words)” value in assay [3] is “inhibited”. The IC50 in assay [3], in assay [1] (setting [6]) and in assay [2] was above 41.8 µM each time. The “reverse transcriptase (RT) inhibitory activity (in words)” value in assay [4] is listed as “inhibitory activities”. Besides, the “Fyn kinase inhibition (in words)” value in assay [1] is reported as “inhibited”. Moreover, the “Na+/K+ ATPase inhibitory activity (in words)” value in assay [5] is reported as “inhibitory activities”.
Turning to `C#CC(O)/C=C/C(O)CCCC(O)CC#CC(O)C#CC(O)CCCC(O)/C=C/CCCCCC(=O)CCCCCCCCCCCCC(O)C(O)C(O)C#CC(=O)O` (stereo not shown) [Osirisyne G (1), osirisyne G], the IC50 in assay [1] (setting [6]) and in assay [2] was above 40.2 µM throughout.
In the case of `C#CC(O)/C=C/C(O)CCCC(O)CC#CC(O)C#CCCCCC(O)/C=C/CCCCCC(=O)CCCCCCCCCCCCC(O)C(O)C(O)C#CC(=O)O` (stereo not shown) [Osirisyne H (2), osirisyne H], the IC50 in assay [1] was above 41 µM.
Take `C#CC(O)/C=C/C(O)CCCC(O)CC#CC(O)C#CC(O)CCCC(O)/C=C/CCCC(O)/C=C/CCCCCCCCCCCCCC(O)C(O)C#CC(=O)O` (stereo not shown) [Osirisyne I (3), osirisyne I]: the IC50 in assay [1] (setting [6]) and in assay [2] was above 41 µM each time.
